Reference: article doi:10.1101/2025.05.23.655116v1 (biorxiv, 2025)

Biological target: T1, FBG domain of Tenascin C (FBG-C, FBG-BAP, hFBG-C) (Homo sapiens, UniProt P24821)
T1 sequence (P24821 1976-2193): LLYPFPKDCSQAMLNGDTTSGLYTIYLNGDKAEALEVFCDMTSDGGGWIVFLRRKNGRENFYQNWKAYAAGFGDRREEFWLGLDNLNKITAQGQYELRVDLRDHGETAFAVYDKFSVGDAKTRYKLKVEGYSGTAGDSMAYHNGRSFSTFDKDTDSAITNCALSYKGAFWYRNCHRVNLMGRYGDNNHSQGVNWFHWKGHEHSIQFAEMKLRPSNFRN
Experiment: SPR, biotinylated FBG on SA chip
Assay type: binding

**Q.** With `COc1ccc(CN(C)CCc2cnn(C)c2)cc1OC[C@@H](O)CN1CCCCC1` [compound 830, 73494830] as the compound, how does the Kd read?
**A.** Its Kd is 553 µM.
